Entries after “also recorded” stand apart in the source; their conditions may differ.
Legend:
[1] = Experiment 2: serum 25(OH)D3 after 3 wk vitamin D3 supplement; type: in vivo, Male Wistar rats; details: 8 μg/day, relative to marginal-diet group
Experimental: After 30 days, the rats were divided into three groups of 6: one group continued with no supplement, one group was given daily vitamin D3 supplement, 8 μg/day either by gastric tube, the third received the supplement by application to the skin in 50 μL ethanol. Vitamin D3 was given for 3 wk. The day before the rats were killed, the vitamin D3 dose was supplemented with [^14 C]-labelled vitamin D3, 915,000 cpm per rat. Blood was obtained from the tail of each rat at 3 h, 9 h, and by heart puncture when the rats were anesthetized for killing, 24 h after giving the tracer. The blood was extracted and chromatographed to distinguish [^14 C]-vitamin D3 from the [^14 C]-25(OH)D3generated from it. Radioactivity was also measured in the liver, kidney, and adipose tissue. Serum nonradioactive 25(OH)D3 was also measured.
(§1) Biochemical measurements. 1,25(OH)2 D3 in serum was measured by calf-thymus receptor-binding assay after initial purification of 1,25(OH)2 D3 with C18-OH cartridges (5). For the serum volumes that were minimal, serum was measured out in 50 μL increments, and the final result was adjusted for the volume of sample analyzed. […] The material eluting as 1,25(OH)2 D3 was evaporated and redissolved in acetonitrile: water for further purification with C18-OH cartridges and quantitation by thymus receptor assay, as described for serum. […]

[2] = 14 days; cited from earlier work
[3] = cited from earlier work
[4] = Experiment 3: serum 1,25(OH)2 D3 during changes in dietary calcium; type: in vivo, Male Wistar rats
From the text: Efficacy in the long-term: ability of oral and dermal vitamin D3 delivery to influence serum 1,25(OH)2 D3 levels in response to changes in dietary calcium.
Male, Wistar rats were obtained at 120-130 g, and placed on a 0.01% calcium, 0.7% phosphate diet that was vitamin D deficient (Teklad Test Diets, Madison, WI) this was for one week to help deplete vitamin D stores. For the next three weeks the rats were fed the vitamin D-deficient diet, but with normal, 0.5%, calcium. […]
as §1

**Q.** For `C=C1CC[C@H](O)C/C1=C/C=C1\CCC[C@]2(C)[C@@H]([C@H](C)CCCC(C)C)CC[C@@H]12` [vitamin D3], which “increase in 25(OH)D3 with dermal relative to gastric supplementation” value [1] is on record?
**A.** 59%

**Q.** And the fatal oral dose [2]?
**A.** 2600 µg/day

**Q.** And the solubility in water [3]?
**A.** not soluble in water

**Q.** And the “difference between the two routes in suppression of serum 1,25(OH)2 D3 levels” value ([4]; 20 nmol/250 g/day)?
**A.** no significant difference between the two routes

**Q.** And the “serum 1,25(OH)2 D3, effect of supplementation” value ([4]; 8 μg/day, gastric or dermal, all levels of calcium intake)?
**A.** lower serum 1,25(OH)2 D3 concentrations; also recorded: lower serum 1,25(OH)2 D3 at every level of calcium intake
